Data from ChEMBL document CHEMBL4834431, “Design of Dimeric Bile Acid Derivatives as Potent and Selective Human NTCP Inhibitors” (J Med Chem, 2021).
Active and inactive are the calls of the source. The calls are words filed in the database; no cut-off is given here.

Key:
Hepatocyte = assay: Cytotoxicity against primary tupaia hepatocytes expressing NTCP assessed as reduction in cell viability at 100 uM after 48 hrs by Cell-Titer Glo assay; type: cell-based; conditions: scandentia
Hepatitis B virus [1] = assay: Antiviral activity against HBV infected in human HepG2-NTCP cells assessed as reduction in intracellular accumulation of HBsAg at 1 uM by immunostaining based fluorescence microscopic analysis; type: functional, organism-based
Hepatitis B virus [2] = assay: Antiviral activity against HBV infected in human HepG2-NTCP cells assessed as reduction in HBeAg secretion at 111 to 1000 nM incubated for 24 hrs followed by replacement with fresh medium and measured at day 5 post infection by ELISA; type: functional, organism-based; conditions: dose 111-1000 nM
Hepatitis B virus [3] = assay: Antiviral activity against HBV infected in human HepG2-NTCP cells assessed as reduction in HBeAg secretion preincubated for 2 hrs followed by viral infection by ELISA; type: functional, organism-based
[4] = molecular target: T1, Hepatic sodium/bile acid cotransporter (Homo sapiens, UniProt Q14973); assay: Inhibition of human NTCP-mediated [3H]-Estrone sulfate uptake expressed in human HepG2 cells at 2 uM; type: cell-based; conditions: hepg2, 2 µM
T1 sequence (Q14973 whole entry): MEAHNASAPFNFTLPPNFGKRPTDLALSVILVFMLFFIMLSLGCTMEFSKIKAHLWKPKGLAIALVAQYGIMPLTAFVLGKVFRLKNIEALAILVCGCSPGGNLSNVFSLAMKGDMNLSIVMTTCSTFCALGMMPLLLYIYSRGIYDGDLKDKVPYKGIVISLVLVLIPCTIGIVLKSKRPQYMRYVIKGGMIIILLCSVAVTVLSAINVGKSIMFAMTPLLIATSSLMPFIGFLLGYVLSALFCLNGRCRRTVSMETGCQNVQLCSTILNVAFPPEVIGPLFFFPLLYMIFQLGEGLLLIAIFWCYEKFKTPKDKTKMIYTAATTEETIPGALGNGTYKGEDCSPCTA

HepG2 [5] = assay: Inhibition of tree shrew NTCP-mediated [3H]-TCA uptake expressed in human HepG2 cells; type: cell-based; conditions: Scandentia
HepG2 [6] = assay: Inhibition of tree shrew NTCP-mediated NQ-064 uptake expressed in human HepG2 cells; type: cell-based; conditions: Scandentia
[7] = molecular target: T2, Hepatic sodium/bile acid cotransporter (Mus musculus, UniProt O08705); assay: Inhibition of mouse NTCP-mediated NQL-064 uptake expressed in human HepG2 cells; type: cell-based
T2 sequence (O08705 whole entry): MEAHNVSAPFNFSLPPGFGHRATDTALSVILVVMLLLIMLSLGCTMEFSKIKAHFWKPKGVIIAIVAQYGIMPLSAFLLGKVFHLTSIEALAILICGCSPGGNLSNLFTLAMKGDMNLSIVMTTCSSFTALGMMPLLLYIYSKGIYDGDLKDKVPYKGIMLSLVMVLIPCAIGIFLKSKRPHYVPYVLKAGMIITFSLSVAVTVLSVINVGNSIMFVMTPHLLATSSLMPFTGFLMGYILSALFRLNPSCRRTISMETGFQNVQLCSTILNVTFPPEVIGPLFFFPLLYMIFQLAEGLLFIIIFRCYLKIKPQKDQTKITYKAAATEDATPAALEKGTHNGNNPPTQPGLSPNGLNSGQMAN

HepG2 [8] = assay: Inhibition of monkey NTCP-mediated NQL-064 uptake expressed in human HepG2 cells; type: cell-based; conditions: Macaca mulatta
[9] = Inhibition of monkey NTCP-mediated [3H]-TCA uptake expressed in human HepG2 cells; type: cell-based; conditions: Macaca mulatta
[10] = molecular target: Hepatic sodium/bile acid cotransporter (Homo sapiens, UniProt Q14973); assay: Inhibition of human NTCP residues (157 to 165) replaced with monkey NTCP -mediated [3H]-TCA uptake expressed in human HepG2 cells; type: cell-based
[11] = molecular target: T1, Hepatic sodium/bile acid cotransporter; assay: Inhibition of human NTCP-mediated NQL-064 uptake expressed in human HepG2 cells; type: cell-based
[12] = molecular target: T1, Hepatic sodium/bile acid cotransporter; assay: Inhibition of human NTCP-mediated [3H]-TCA uptake expressed in human HepG2 cells pretreated for 2 hrs followed by [3H]-TCA addition in absence of FBS; type: cell-based
Hepatitis B virus [13] = assay: Antiviral activity against HBV infected in human HepG2-NTCP cells assessed as reduction in HBeAg secretion at 31.25 to 2000 nM incubated for 24 hrs followed by replacement with fresh medium and measured at day 5 post infection by ELISA; type: functional, organism-based; conditions: dose 31.25-2000 nM
[14] = molecular target: T1, Hepatic sodium/bile acid cotransporter; assay: Inhibition of human NTCP-mediated [3H]-TCA uptake expressed in human HepG2 cells at 0.4 to 10 uM incubated for 10 mins by liquid scintillation counter analysis; type: cell-based; conditions: hepg2, 10 min, dose 0.4-10 µM

SMILES | Activity (Hepatocyte) | Activity (Hepatitis B virus [1]) | Activity (Hepatitis B virus [2]) | Activity (Hepatitis B virus [3]) | inhibition (INH) [4] | inhibition (HepG2 [5]) | inhibition (HepG2 [6]) | inhibition (INH) [7] | inhibition (HepG2 [8]) | IC50 [9] [µM] | IC50 [10] [µM] | inhibition (INH) [11] | IC50 [12] [µM] | Activity (Hepatitis B virus [13]) | inhibition (INH) [14]
C[C@H](CCC(=O)NCCS(=O)(=O)O)[C@H]1CC[C@H]2[C@@H]3[C@@H](O)C[C@@H]4C[C@H](NC(=O)CCCC(=O)N[C@@H]5CC[C@@]6(C)[C@@H](C5)C[C@H](O)[C@@H]5[C@@H]6CC[C@]6(C)[C@@H]([C@H](C)CCC(=O)NCCS(=O)(=O)O)CC[C@@H]56)CC[C@]4(C)[C@H]3CC[C@]12C | Non-Toxic | Active | Active | inactive | Active | inactive | inactive | Not Active | inactive | 4.77 | 8.35 | Active | – | – | –
C[C@H](CCC(=O)O[C@@H]1CC[C@@]2(C)[C@@H](C1)C[C@H](O)[C@@H]1[C@@H]2CC[C@]2(C)[C@@H]([C@H](C)CCC(=O)NCCS(=O)(=O)O)CC[C@@H]12)[C@H]1CC[C@H]2[C@@H]3[C@@H](O)C[C@@H]4C[C@H](O)CC[C@]4(C)[C@H]3CC[C@]12C | Non-Toxic | Active | Active | Active | Active | Active | – | – | – | – | – | – | 0.0362 | Active | Active
